pEC50, pIC50: −log10 of the molar value.
Tests used:
[1] = target: T1, mouse PPARγ (Mus musculus, UniProt P37238); experiment: PPARγ radioligand binding assay (GST-PPARγ-LBD fusion protein, scintillation proximity); details: SPA
T1 sequence (P37238 204-505): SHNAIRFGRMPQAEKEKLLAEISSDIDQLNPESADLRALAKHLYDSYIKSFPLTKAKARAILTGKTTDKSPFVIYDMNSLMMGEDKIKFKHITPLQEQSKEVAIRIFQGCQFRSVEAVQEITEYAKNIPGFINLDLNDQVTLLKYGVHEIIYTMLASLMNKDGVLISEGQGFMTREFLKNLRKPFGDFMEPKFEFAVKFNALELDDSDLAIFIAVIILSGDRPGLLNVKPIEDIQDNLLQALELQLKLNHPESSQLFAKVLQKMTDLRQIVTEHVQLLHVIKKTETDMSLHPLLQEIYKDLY
Description: (§1) Full-length cDNA clones for human PPARα and mouse PPARγ were obtained by RT-PCR from human adipose and mouse liver cRNA, respectively, cloned into plasmid vectors and verified by DNA sequencing. […] To accomplish this, the portions of the cloned sequences encoding the LBDs were amplified from the full-length clones by PCR and then subcloned into the plasmid vectors. Final clones were verified by DNA sequence analysis.
(§2) Induction, expression, and purification of GST-LBD fusion proteins were performed in E. coli strain BL21(pLysS) cells by standard methods (Ref: Current Protocols in Molecular Biology, Wiley Press, edited by Ausubel et al.).
(§3) Radioligand Binding Assay
(§4) PPARγ receptor binding was assayed in TKE50 (50 mM Tris-HCl, pH 8, 50 mM KCl, […], 0.1 mg/ml fatty acid-free […] and 10 mM DTT). For each 96 well reaction an 140 ng equivalent of GST-PPARγ-LBD fusion protein was bound to 10 ug SPA beads (PharmaciaAmersham) in a final volume of 50 ul by shaking. The resulting slurry was incubated for 1 h at RT and centrifuged for 2 min at 1300 g. The supernatant containing unbound protein was removed and the semidry pellet containing the recptor-coated beads was resolved in 50 ul of TKE. For radioligand binding e.g. 10000 dpm 2(S)-(2-benzoyl-phenylamino)-3-{4-[1, 1-ditritio-2-(5-methyl-2-phenyl-oxazol-4-yl)-ethoxy]-phenyl}-propionic acid in 50 ul were added, the reaction incubated at RT for 1h and scintillation proximity counting performed. All binding assays were performed in 96 well plates and the amount of bound ligand measured on a Packard TopCount using OptiPlates (Packard). Nonspecific binding was determined in the presence of 10^−4 M unlabelled compound. Dose response curves were done in triplicates within a range of concentration from 10^−10 M to 10^−4 M.

[2] = target: T2, human PPARα (Homo sapiens, UniProt Q07869); experiment: PPARα radioligand binding assay (GST-PPARα-LBD fusion protein); parameters: made in house; host or cells: E. coli BL21(pLysS)
T2 sequence (Q07869 167-468 limits assumed): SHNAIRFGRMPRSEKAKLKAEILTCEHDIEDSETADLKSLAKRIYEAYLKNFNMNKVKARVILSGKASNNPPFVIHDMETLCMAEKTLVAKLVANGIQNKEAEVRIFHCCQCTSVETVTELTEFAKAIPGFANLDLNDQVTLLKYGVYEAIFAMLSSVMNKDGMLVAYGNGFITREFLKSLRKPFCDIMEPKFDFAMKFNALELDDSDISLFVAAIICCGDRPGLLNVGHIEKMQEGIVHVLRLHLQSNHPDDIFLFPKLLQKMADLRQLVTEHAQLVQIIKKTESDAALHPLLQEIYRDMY
Description: as §1, §2, §3
PPARα receptor binding was assayed in TKE10 (10 mM Tris-HCl, pH 8, 50 mM KCl, 2 mM EDTA, […] fatty acid free BSA and 10 mM DTT). For each 96 well 2.4 ug equivalent of GST-PPARα-LBD fusion protein and radioligand, e.g. 40000 dpm 2(S)-(2-benzoyl-phenylamino)-3-{4-[1,1-ditritio-2-(5-methyl-2-phenyl-oxazol-4-yl)-ethoxy]-phenyl}-propionic acid, were incubated in 100 ul volume at RT for 2 hrs. Bound ligand was removed from unbound ligand by solid phase separation using MultiScreen plates (Millipore) filled with 80 ul of SG25 according to the manufacturer's recommendations.
as §4

[3] = target: T2, human PPARα; experiment: Luciferase transcriptional reporter gene assay, pFA-PPARα-LBD in BHK21 cells; format: cell-based; details: Gal4-PPARα-LBD
Description: as §1
(§5) Luciferase Transcriptional Reporter Gene Assays
(§6) Baby hamster kidney cells (BHK21 ATCC CCL10) were grown in DMEM medium containing 10% FBS at 37° C. in a […] atmosphere. Cells were seeded in 6 well plates at a density of 10^5 Cells/well and then transiently batch-transfected with either the pFA-PPARγ-LBD or pFA-PPARα-LBD expression plasmids plus the pFR-luc reporter plasmid and an expression plasmid encoding the secretable form of alkaline phosphatase (SEAP) as a normalization control. […] Six hours following transfection, the cells were harvested by trypsinization and seeded in 96 well plates at a density of 10^4 cells/well. After 24 hours to allow attachment of cells, the medium was removed and replaced with 100 ul of phenol red-free medium containing the test substances or control ligands (final. 0.1% DMSO). Following incubation of the cells for 24 hours with substances, 50 ul of the supernatant was recovered and analyzed for SEAP activity (Roche Molecular Biochemicals). The remainder of the supernatant was discarded, 50 ul PBS was added per well followed by one volume of Luciferase Constant-Light Reagent (Roche Molecular Biochemicals) to lyse the cells and initiate the luciferase reaction. Luminescence for both SEAP and luciferase was measured in a Packard TopCount. Luciferase activity was normalized to the SEAP control and transcriptional activation in the presence of a test substance was expressed as fold-activation over cells incubated in the absence of the substance. EC50 values were calculated using the XLfit program (ID Business Solutions Ltd. UK).

[4] = target: T1, mouse PPARγ; experiment: Luciferase transcriptional reporter gene assay, pFA-PPARγ-LBD in BHK21 cells; format: cell-based; parameters: expressed in transfected cells; host or cells: BHK21 (ATCC CCL10); details: Gal4-PPARγ-LBD
Description: as §1, §5, §6

Structure (SMILES)	pIC50 [1]	pIC50 [2]	pEC50 [3]	pEC50 [4]
CCO[C@@H](Cc1ccc2c(ccn2Cc2nc(-c3ccc(F)c(C)c3)oc2C)c1)C(=O)O [Example 25, (S)-2-Ethoxy-3-{1-[2-(4-fluoro-3-methyl-phenyl)-5-methyl-oxazol-4-ylmethyl]-1H-indol-5-yl}-propionic Acid]	7.30	6.92	7.22	7.30
CCO[C@@H](Cc1ccc2c(ccn2Cc2nc(-c3ccccc3Cl)oc2C)c1)C(=O)O [Example 5, (S)-3-{1-[2-(2-Chloro-phenyl)-5-methyl-oxazol-4-ylmethyl]-1H-indol-5-yl}-2-ethoxy-propionic Acid]		6.62	5.82	
CCO[C@@H](Cc1ccc2c(ccn2Cc2nc(-c3ccc(C(F)(F)F)cc3)oc2C)c1)C(=O)O [Example 18, (S)-2-Ethoxy-3-{1-[5-methyl-2-(4-trifluoromethyl-phenyl)-oxazol-4-ylmethyl]-1H-indol-5-yl}-propionic Acid]	6.74	7.52	7.10	6.89
CCO[C@@H](Cc1ccc2c(ccn2Cc2nc(-c3cc(OC)cc(OC)c3)oc2C)c1)C(=O)O [Example 21, (S)-3-{1-[2-(3,5-Dimethoxy-phenyl)-5-methyl-oxazol-4-ylmethyl]-1H-indol-5-yl}-2-ethoxy-propionic Acid]		7.52	7.52	
CCOC(Cc1ccc2c(c1)c(C)cn2Cc1nc(-c2ccc(F)c(C)c2)oc1C)C(=O)O (racemic) [Example 39, Rac-2-Ethoxy-3-{1-[2-(4-fluoro-3-methyl-phenyl)-5-methyl-oxazol-4-ylmethyl]-3-methyl-1H-indol-5-yl}-propionic Acid]	6.96	7.22	6.33	7.70
CCOC(Cc1ccc2c(c1)cc(C)n2Cc1csc(-c2ccccc2)n1)C(=O)O (racemic) [Example 44, Rac-2-Ethoxy-3-[2-methyl-1-(2-phenyl-thiazol-4-ylmethyl)-1H-indol-5-yl]-propionic Acid]	5.85	5.79	5.28	5.57
CCO[C@@H](Cc1ccc2c(ccn2Cc2nc(-c3ccccc3OC)oc2C)c1)C(=O)O [Example 8, (S)-2-Ethoxy-3-{1-[2-(2-methoxy-phenyl)-5-methyl-oxazol-4-ylmethyl]-1H-indol-5-yl}-propionic Acid]	6.40	6.55	6.72	6.25

Source: patent US6890947B2, “Indolyl derivatives” (Hoffmann-La Roche Inc., priority 2002, dated 2005)
